Measured values published in article PMC12136037, “Type II kinase inhibitors that target Parkinson’s disease–associated LRRK2” (Science Advances, 2025).

Tests used:
Assay in all cases: 33PanQinase kinome-wide selectivity profile (Reaction Biology)
Assay type in all cases: biochemical
350 wild-type kinases [1] = target: T1, 350 wild-type kinases (Homo sapiens, UniProt Q96Q40); settings: singlicate; for Residual activity (% of control), CDK15/CycA2: kinase CDK15/CycA2, ATP 1 µM; for Residual activity (% of control), CDK15/CycB1: kinase CDK15/CycB1, ATP 0,3 µM
T1 construct: purchased Reaction Biology (assay service)
Procedure: (§1) Compound RN341 was tested at two concentrations of 1 and 10 μM against a panel of 350 wild-type kinases in the ^33PanQinase assay. The assay was performed by Reaction Biology (www.reactionbiology.com/services/kinase-assays/kinase-panel-screening/).

350 wild-type kinases [2] = target: T2, 350 wild-type kinases (Homo sapiens, UniProt Q15131); settings: kinase CDK10/CycQ, ATP 3 µM, singlicate
T2 construct: purchased Reaction Biology (assay service)
Procedure: as §1

350 wild-type kinases [3] = target: T3, 350 wild-type kinases (Homo sapiens, UniProt Q07002); settings: kinase CDK18/CycY, ATP 1 µM, singlicate
T3 construct: purchased Reaction Biology (assay service)
Procedure: as §1

350 wild-type kinases [4] = target: T4, 350 wild-type kinases (Homo sapiens, UniProt Q5S007); settings: 1 and 10 μM; authors think kinase was inactive in panel
T4 construct: purchased Reaction Biology (assay service)
Procedure: as §1

350 wild-type kinases [5] = target: T5, 350 wild-type kinases (Homo sapiens, UniProt Q9UM73); settings: kinase ALK, ATP 0,3 µM, singlicate
T5 construct: purchased Reaction Biology (assay service)
Procedure: as §1

350 wild-type kinases [6] = target: T6, 350 wild-type kinases (Homo sapiens, UniProt P24941); settings: singlicate; for Residual activity (% of control), CDK2/CycA2: kinase CDK2/CycA2, ATP 0,3 µM; for Residual activity (% of control), CDK2/CycD1: kinase CDK2/CycD1, ATP 3 µM; for Residual activity (% of control), CDK2/CycE1: kinase CDK2/CycE1, ATP 1 µM
T6 construct: purchased Reaction Biology (assay service)
Procedure: as §1

350 wild-type kinases [7] = target: T7, 350 wild-type kinases (Homo sapiens, UniProt P31749); settings: kinase AKT1, ATP 1 µM, singlicate
T7 construct: purchased Reaction Biology (assay service)
Procedure: as §1

350 wild-type kinases [8] = target: T8, 350 wild-type kinases (Homo sapiens, UniProt Q13554); settings: kinase CAMK2B, ATP 3 µM, singlicate
T8 construct: purchased Reaction Biology (assay service)
Procedure: as §1

350 wild-type kinases [9] = target: T9, 350 wild-type kinases (Homo sapiens, UniProt Q9UQB9); settings: kinase AuroraC, ATP 3 µM, singlicate
T9 construct: purchased Reaction Biology (assay service)
Procedure: as §1

350 wild-type kinases [10] = target: T10, 350 wild-type kinases (Homo sapiens, UniProt Q13882); settings: kinase BRK, ATP 3 µM, singlicate
T10 construct: purchased Reaction Biology (assay service)
Procedure: as §1

350 wild-type kinases [11] = target: T11, 350 wild-type kinases (Homo sapiens, UniProt Q00535); settings: singlicate; for Residual activity (% of control), CDK5/p25NCK: kinase CDK5/p25NCK, ATP 0,3 µM; for Residual activity (% of control), CDK5/p35NCK: kinase CDK5/p35NCK, ATP 0,1 µM
T11 construct: purchased Reaction Biology (assay service)
Procedure: as §1

350 wild-type kinases [12] = target: T12, 350 wild-type kinases (Homo sapiens, UniProt P15056); settings: kinase BRAF, ATP 1 µM, singlicate
T12 construct: purchased Reaction Biology (assay service)
Procedure: as §1

350 wild-type kinases [13] = target: T13, 350 wild-type kinases (Homo sapiens, UniProt P11802); settings: singlicate; for Residual activity (% of control), CDK4/CycD1: kinase CDK4/CycD1; for Residual activity (% of control), CDK4/CycD1 / Residual activity (% of control), CDK4/CycD2: ATP 3 µM; for Residual activity (% of control), CDK4/CycD2: kinase CDK4/CycD2; for Residual activity (% of control), CDK4/CycD3: kinase CDK4/CycD3, ATP 10 µM
T13 construct: purchased Reaction Biology (assay service)
Procedure: as §1

350 wild-type kinases [14] = target: T14, 350 wild-type kinases (Homo sapiens, UniProt Q9BWU1); settings: kinase CDK19/CycC, ATP 3 µM, singlicate
T14 construct: purchased Reaction Biology (assay service)
Procedure: as §1

350 wild-type kinases [15] = target: T15, 350 wild-type kinases (Homo sapiens, UniProt P50613); settings: kinase CDK7/CycH/MAT1, ATP 1 µM, singlicate
T15 construct: purchased Reaction Biology (assay service)
Procedure: as §1

350 wild-type kinases [16] = target: T16, 350 wild-type kinases (Homo sapiens, UniProt Q06187); settings: kinase BTK, ATP 3 µM, singlicate
T16 construct: purchased Reaction Biology (assay service)
Procedure: as §1

350 wild-type kinases [17] = target: T17, 350 wild-type kinases (Homo sapiens, UniProt P10398, Y301D/Y302D); settings: kinase ARAF YDYD (constitutively active variant), ATP 1 µM, singlicate
T17 construct: purchased Reaction Biology (assay service)
Procedure: as §1

350 wild-type kinases [18] = target: T18, 350 wild-type kinases (Homo sapiens, UniProt P31751); settings: kinase AKT2, ATP 10 µM, singlicate
T18 construct: purchased Reaction Biology (assay service)
Procedure: as §1

350 wild-type kinases [19] = target: T19, 350 wild-type kinases (Homo sapiens, UniProt Q8N568); settings: kinase DCAMKL2, ATP 1 µM, singlicate
T19 construct: purchased Reaction Biology (assay service)
Procedure: as §1

350 wild-type kinases [20] = target: T20, 350 wild-type kinases (Homo sapiens, UniProt P51813); settings: kinase BMX, ATP 1 µM, singlicate
T20 construct: purchased Reaction Biology (assay service)
Procedure: as §1

350 wild-type kinases [21] = target: T21, 350 wild-type kinases (Homo sapiens, UniProt P42684); settings: kinase ABL2, ATP 0,3 µM, singlicate
T21 construct: purchased Reaction Biology (assay service)
Procedure: as §1

350 wild-type kinases [22] = target: T22, 350 wild-type kinases (Homo sapiens, UniProt Q9UQM7); settings: kinase CAMK2A, ATP 3 µM, singlicate
T22 construct: purchased Reaction Biology (assay service)
Procedure: as §1

T1 sequence (Q96Q40 whole entry): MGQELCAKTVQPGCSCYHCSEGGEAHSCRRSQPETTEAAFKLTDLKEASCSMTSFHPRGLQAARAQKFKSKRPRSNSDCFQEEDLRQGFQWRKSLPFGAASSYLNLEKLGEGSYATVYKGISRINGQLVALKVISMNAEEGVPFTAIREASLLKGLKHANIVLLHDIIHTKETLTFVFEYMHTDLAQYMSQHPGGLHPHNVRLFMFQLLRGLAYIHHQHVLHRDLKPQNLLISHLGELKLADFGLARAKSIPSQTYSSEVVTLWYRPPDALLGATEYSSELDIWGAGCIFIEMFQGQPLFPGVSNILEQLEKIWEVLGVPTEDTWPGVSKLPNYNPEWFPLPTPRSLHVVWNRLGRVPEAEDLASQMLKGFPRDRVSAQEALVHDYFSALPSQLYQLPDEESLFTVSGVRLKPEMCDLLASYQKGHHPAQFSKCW
T13 sequence (P11802 whole entry): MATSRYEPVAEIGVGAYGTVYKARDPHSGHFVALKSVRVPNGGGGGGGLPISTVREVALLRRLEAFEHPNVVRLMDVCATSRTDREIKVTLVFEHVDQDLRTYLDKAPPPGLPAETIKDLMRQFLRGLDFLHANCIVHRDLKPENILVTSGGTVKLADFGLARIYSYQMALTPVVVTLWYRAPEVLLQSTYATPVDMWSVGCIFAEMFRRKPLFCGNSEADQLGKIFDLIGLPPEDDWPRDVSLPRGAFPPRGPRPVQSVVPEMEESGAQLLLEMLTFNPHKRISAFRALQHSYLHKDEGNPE
T11 sequence (Q00535 whole entry): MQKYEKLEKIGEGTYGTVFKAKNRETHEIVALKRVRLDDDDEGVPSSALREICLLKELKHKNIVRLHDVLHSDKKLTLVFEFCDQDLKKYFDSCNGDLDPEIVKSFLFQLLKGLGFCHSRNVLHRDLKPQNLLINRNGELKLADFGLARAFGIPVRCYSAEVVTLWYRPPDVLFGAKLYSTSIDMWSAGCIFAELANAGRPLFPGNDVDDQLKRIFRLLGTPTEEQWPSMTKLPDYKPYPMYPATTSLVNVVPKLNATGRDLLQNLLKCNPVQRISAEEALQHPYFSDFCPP
T21 sequence (P42684 whole entry): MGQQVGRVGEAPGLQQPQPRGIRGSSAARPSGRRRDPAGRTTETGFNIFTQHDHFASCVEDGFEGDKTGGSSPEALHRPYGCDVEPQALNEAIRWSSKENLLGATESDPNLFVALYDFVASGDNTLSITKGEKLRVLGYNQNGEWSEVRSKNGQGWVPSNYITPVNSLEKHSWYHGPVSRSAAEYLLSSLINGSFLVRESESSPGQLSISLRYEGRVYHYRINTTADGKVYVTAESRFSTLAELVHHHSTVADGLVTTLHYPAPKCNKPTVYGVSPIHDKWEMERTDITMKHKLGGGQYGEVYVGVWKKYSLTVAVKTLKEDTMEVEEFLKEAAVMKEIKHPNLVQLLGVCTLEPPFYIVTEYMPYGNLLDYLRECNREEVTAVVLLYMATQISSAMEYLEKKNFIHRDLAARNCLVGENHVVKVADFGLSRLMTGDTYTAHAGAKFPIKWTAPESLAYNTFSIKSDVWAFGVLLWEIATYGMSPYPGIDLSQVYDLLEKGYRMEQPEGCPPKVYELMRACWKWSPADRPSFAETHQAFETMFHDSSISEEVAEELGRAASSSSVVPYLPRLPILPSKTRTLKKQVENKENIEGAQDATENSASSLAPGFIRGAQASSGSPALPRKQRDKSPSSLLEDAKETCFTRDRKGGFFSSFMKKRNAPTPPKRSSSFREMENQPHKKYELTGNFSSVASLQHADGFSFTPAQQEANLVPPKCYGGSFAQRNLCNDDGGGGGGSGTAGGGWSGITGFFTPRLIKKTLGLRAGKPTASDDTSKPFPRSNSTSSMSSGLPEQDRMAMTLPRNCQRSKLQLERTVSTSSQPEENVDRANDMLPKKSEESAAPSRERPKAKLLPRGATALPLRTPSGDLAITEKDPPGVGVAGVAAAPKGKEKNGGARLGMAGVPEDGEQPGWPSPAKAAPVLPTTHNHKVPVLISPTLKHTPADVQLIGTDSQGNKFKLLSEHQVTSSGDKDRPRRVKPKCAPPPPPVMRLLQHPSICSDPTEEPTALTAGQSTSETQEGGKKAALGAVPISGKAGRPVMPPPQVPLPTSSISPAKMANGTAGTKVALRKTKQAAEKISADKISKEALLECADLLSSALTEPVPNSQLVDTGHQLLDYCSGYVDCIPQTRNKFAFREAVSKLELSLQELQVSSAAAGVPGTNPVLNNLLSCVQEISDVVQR
T17 sequence (P10398 whole entry Y301D/Y302D): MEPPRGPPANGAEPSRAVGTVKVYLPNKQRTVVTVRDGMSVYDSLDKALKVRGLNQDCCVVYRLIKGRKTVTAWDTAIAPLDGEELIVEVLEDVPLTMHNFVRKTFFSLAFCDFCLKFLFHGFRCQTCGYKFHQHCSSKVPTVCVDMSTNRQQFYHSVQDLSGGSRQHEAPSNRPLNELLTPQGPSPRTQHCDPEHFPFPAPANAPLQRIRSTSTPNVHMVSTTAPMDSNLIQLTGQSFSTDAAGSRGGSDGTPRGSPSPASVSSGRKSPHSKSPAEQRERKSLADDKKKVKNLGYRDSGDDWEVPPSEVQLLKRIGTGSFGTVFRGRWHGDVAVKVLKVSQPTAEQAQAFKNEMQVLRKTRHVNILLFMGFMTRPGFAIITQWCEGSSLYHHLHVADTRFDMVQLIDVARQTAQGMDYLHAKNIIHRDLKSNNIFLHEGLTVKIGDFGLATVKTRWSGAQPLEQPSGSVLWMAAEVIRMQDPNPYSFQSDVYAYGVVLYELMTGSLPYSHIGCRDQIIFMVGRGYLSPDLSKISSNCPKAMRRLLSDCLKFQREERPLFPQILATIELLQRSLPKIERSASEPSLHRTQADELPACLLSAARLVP
T18 sequence (P31751 whole entry): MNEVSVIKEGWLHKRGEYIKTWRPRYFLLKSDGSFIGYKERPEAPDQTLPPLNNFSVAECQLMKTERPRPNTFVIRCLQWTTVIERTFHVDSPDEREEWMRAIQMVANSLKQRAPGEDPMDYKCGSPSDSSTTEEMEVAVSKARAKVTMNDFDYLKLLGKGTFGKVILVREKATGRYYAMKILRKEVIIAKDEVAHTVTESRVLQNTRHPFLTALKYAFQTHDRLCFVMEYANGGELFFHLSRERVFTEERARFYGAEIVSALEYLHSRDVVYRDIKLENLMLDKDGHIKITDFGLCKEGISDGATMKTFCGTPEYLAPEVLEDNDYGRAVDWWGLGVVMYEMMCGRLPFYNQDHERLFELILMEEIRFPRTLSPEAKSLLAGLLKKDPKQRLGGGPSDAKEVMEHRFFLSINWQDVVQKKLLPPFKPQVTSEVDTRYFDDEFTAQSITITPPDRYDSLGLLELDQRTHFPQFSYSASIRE
T5 sequence (Q9UM73 19-1620): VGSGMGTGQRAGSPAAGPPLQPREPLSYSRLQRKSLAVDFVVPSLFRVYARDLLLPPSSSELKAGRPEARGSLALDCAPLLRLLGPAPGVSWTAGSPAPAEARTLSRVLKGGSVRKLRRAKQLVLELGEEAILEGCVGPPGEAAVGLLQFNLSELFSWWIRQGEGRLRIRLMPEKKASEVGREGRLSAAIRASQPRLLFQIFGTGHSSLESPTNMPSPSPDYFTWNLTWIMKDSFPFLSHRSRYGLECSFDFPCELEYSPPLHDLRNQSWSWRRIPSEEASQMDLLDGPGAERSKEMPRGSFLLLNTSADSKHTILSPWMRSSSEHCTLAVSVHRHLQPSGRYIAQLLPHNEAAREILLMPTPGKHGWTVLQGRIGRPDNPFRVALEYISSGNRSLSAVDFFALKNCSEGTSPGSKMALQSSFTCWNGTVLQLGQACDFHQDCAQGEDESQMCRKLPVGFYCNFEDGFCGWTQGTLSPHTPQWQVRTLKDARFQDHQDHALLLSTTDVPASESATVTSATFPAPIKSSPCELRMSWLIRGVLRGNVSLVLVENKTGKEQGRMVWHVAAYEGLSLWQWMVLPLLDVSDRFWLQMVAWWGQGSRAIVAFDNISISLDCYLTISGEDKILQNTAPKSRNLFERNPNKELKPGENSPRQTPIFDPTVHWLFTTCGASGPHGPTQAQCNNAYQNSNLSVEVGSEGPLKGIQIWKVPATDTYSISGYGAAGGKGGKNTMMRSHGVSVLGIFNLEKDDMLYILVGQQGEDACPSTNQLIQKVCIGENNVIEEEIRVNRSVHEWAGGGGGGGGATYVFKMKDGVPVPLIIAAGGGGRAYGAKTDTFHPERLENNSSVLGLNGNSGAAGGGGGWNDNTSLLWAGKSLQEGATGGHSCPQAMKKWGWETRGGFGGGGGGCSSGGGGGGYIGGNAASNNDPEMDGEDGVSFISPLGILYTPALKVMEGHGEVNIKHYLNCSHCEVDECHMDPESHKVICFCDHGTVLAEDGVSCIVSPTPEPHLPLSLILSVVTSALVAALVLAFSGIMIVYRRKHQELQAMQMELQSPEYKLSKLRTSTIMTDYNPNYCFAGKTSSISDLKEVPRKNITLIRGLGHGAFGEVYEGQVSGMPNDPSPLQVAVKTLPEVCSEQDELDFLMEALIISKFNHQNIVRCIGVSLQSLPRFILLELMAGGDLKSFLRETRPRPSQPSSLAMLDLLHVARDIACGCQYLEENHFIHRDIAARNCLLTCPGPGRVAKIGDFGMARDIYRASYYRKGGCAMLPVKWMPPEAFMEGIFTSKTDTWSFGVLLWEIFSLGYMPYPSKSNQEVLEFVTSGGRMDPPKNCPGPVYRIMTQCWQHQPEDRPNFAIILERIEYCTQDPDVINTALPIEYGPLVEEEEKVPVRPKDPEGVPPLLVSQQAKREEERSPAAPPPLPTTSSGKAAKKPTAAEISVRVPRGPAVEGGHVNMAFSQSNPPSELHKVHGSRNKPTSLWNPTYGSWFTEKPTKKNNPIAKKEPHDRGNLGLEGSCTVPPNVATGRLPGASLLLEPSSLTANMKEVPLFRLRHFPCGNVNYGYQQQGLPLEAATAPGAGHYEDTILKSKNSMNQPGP

`CCSc1nc(NC)c2c(-c3cccc(NC(=O)Nc4cc(C(C)(C)C)nn4-c4ccc(C)cc4)c3)c[nH]c2n1` [Compound 32] was tested, and the “Residual activity (% of control), CDK15/CycA2” value (350 wild-type kinases [1]; Assay Conc. 1.0E-05 M) was 92 % of control, the “Residual activity (% of control), CDK15/CycA2” value (350 wild-type kinases [1]; Assay Conc. 1.0E-06 M) was 116 % of control and the “Residual activity (% of control), CDK15/CycB1” value (350 wild-type kinases [1]; Assay Conc. 1.0E-05 M) was 86 % of control. The “Residual activity (% of control), CDK15/CycB1” value (350 wild-type kinases [1]; Assay Conc. 1.0E-06 M) was 98 % of control, the “Residual activity (% of control), CDK10/CycQ” value (350 wild-type kinases [2]; Assay Conc. 1.0E-05 M) was 71 % of control and the “Residual activity (% of control), CDK10/CycQ” value (350 wild-type kinases [2]; Assay Conc. 1.0E-06 M) was 98 % of control. The “Residual activity (% of control), CDK18/CycY” value (350 wild-type kinases [3]; Assay Conc. 1.0E-05 M) was 73 % of control, the “Residual activity (% of control), CDK18/CycY” value (350 wild-type kinases [3]; Assay Conc. 1.0E-06 M) was 110 % of control and the “LRRK2 inhibition in the 33PanQinase screen” value (350 wild-type kinases [4]) was “not detected as a LRRK2 inhibitor”. For the same molecule, the “Residual activity (% of control), ALK” value (350 wild-type kinases [5]; Assay Conc. 1.0E-05 M) was 23 % of control, the “Residual activity (% of control), ALK” value (350 wild-type kinases [5]; Assay Conc. 1.0E-06 M) was 64 % of control and the “Residual activity (% of control), CDK2/CycA2” value (350 wild-type kinases [6]; Assay Conc. 1.0E-05 M) was 46 % of control. For the same molecule, the “Residual activity (% of control), CDK2/CycA2” value (350 wild-type kinases [6]; Assay Conc. 1.0E-06 M) was 105 % of control, the “Residual activity (% of control), CDK2/CycD1” value (350 wild-type kinases [6]; Assay Conc. 1.0E-05 M) was 78 % of control and the “Residual activity (% of control), CDK2/CycD1” value (350 wild-type kinases [6]; Assay Conc. 1.0E-06 M) was 110 % of control. The “Residual activity (% of control), CDK2/CycE1” value (350 wild-type kinases [6]; Assay Conc. 1.0E-05 M) was 58 % of control, the “Residual activity (% of control), CDK2/CycE1” value (350 wild-type kinases [6]; Assay Conc. 1.0E-06 M) was 103 % of control and the “Residual activity (% of control), AKT1” value (350 wild-type kinases [7]; Assay Conc. 1.0E-05 M) was 91 % of control. For the same molecule, the “Residual activity (% of control), AKT1” value (350 wild-type kinases [7]; Assay Conc. 1.0E-06 M) was 103 % of control, the “Residual activity (% of control), CAMK2B” value (350 wild-type kinases [8]; Assay Conc. 1.0E-05 M) was 83 % of control and the “Residual activity (% of control), CAMK2B” value (350 wild-type kinases [8]; Assay Conc. 1.0E-06 M) was 116 % of control. For the same molecule, the “Residual activity (% of control), AuroraC” value (350 wild-type kinases [9]; Assay Conc. 1.0E-05 M) was 77 % of control, the “Residual activity (% of control), AuroraC” value (350 wild-type kinases [9]; Assay Conc. 1.0E-06 M) was 105 % of control and the “Residual activity (% of control), BRK” value (350 wild-type kinases [10]; Assay Conc. 1.0E-05 M) was 79 % of control. The “Residual activity (% of control), BRK” value (350 wild-type kinases [10]; Assay Conc. 1.0E-06 M) was 109 % of control, the “Residual activity (% of control), CDK5/p25NCK” value (350 wild-type kinases [11]; Assay Conc. 1.0E-05 M) was 66 % of control and the “Residual activity (% of control), CDK5/p25NCK” value (350 wild-type kinases [11]; Assay Conc. 1.0E-06 M) was 95 % of control. The “Residual activity (% of control), CDK5/p35NCK” value (350 wild-type kinases [11]; Assay Conc. 1.0E-05 M) was 76 % of control, the “Residual activity (% of control), CDK5/p35NCK” value (350 wild-type kinases [11]; Assay Conc. 1.0E-06 M) was 94 % of control and the “Residual activity (% of control), BRAF” value (350 wild-type kinases [12]; Assay Conc. 1.0E-05 M) was 65 % of control. For the same molecule, the “Residual activity (% of control), BRAF” value (350 wild-type kinases [12]; Assay Conc. 1.0E-06 M) was 98 % of control, the “Residual activity (% of control), CDK4/CycD1” value (350 wild-type kinases [13]; Assay Conc. 1.0E-05 M) was 57 % of control and the “Residual activity (% of control), CDK4/CycD1” value (350 wild-type kinases [13]; Assay Conc. 1.0E-06 M) was 87 % of control. For the same molecule, the “Residual activity (% of control), CDK4/CycD2” value (350 wild-type kinases [13]; Assay Conc. 1.0E-05 M) was 49 % of control, the “Residual activity (% of control), CDK4/CycD2” value (350 wild-type kinases [13]; Assay Conc. 1.0E-06 M) was 111 % of control and the “Residual activity (% of control), CDK4/CycD3” value (350 wild-type kinases [13]; Assay Conc. 1.0E-05 M) was 87 % of control. For the same molecule, the “Residual activity (% of control), CDK4/CycD3” value (350 wild-type kinases [13]; Assay Conc. 1.0E-06 M) was 102 % of control, the “Residual activity (% of control), CDK19/CycC” value (350 wild-type kinases [14]; Assay Conc. 1.0E-05 M) was 54 % of control and the “Residual activity (% of control), CDK19/CycC” value (350 wild-type kinases [14]; Assay Conc. 1.0E-06 M) was 97 % of control. The “Residual activity (% of control), CDK7/CycH/MAT1” value (350 wild-type kinases [15]; Assay Conc. 1.0E-05 M) was 75 % of control, the “Residual activity (% of control), CDK7/CycH/MAT1” value (350 wild-type kinases [15]; Assay Conc. 1.0E-06 M) was 100 % of control and the “Residual activity (% of control), BTK” value (350 wild-type kinases [16]; Assay Conc. 1.0E-05 M) was 37 % of control. For the same molecule, the “Residual activity (% of control), BTK” value (350 wild-type kinases [16]; Assay Conc. 1.0E-06 M) was 80 % of control, the “Residual activity (% of control), ARAF YDYD” value (350 wild-type kinases [17]; Assay Conc. 1.0E-05 M) was 89 % of control and the “Residual activity (% of control), ARAF YDYD” value (350 wild-type kinases [17]; Assay Conc. 1.0E-06 M) was 116 % of control. For the same molecule, the “Residual activity (% of control), AKT2” value (350 wild-type kinases [18]; Assay Conc. 1.0E-05 M) was 88 % of control, the “Residual activity (% of control), AKT2” value (350 wild-type kinases [18]; Assay Conc. 1.0E-06 M) was 117 % of control and the “Residual activity (% of control), DCAMKL2” value (350 wild-type kinases [19]; Assay Conc. 1.0E-05 M) was 91 % of control. For the same molecule, the “Residual activity (% of control), DCAMKL2” value (350 wild-type kinases [19]; Assay Conc. 1.0E-06 M) was 103 % of control, the “Residual activity (% of control), BMX” value (350 wild-type kinases [20]; Assay Conc. 1.0E-05 M) was 68 % of control and the “Residual activity (% of control), BMX” value (350 wild-type kinases [20]; Assay Conc. 1.0E-06 M) was 109 % of control. The “Residual activity (% of control), ABL2” value (350 wild-type kinases [21]; Assay Conc. 1.0E-05 M) was 73 % of control, the “Residual activity (% of control), ABL2” value (350 wild-type kinases [21]; Assay Conc. 1.0E-06 M) was 107 % of control and the “Residual activity (% of control), CAMK2A” value (350 wild-type kinases [22]; Assay Conc. 1.0E-05 M) was 63 % of control. The “Residual activity (% of control), CAMK2A” value (350 wild-type kinases [22]; Assay Conc. 1.0E-06 M) was 94 % of control.
